In PubChem BioAssay AID1963959 (Molecular Pharmacology Branch, DTP, NCI, 2024):

Test system: T-47D spheroids with HUVEC/MSC, viability
Experiment: Anticancer human tumor T-47D cell line growth inhibition [PI3K];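 further: spheroids exposed to agents for seven days before reading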;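 on viability, T/C: percent of DMSO vehicle control luminescence so 100% = untreated growth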
Conditions: for viability, T/C: stronger effect = lower value
Outline: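 Spheroid viability read-out. Co-cultures contained the tumor line plus HUVEC and human MSCs. Each agent was paired with a PI3K inhibitor (inavolisib, alpelisib, duvelisib, copanlisib) across half-log dilutions starting at clinical Cmax, or at 10 microM when Cmax was unknown.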

[1] = curve of first compound, second compound 0.00316 µM
[2] = curve of first compound, second compound 0.01 µM
[3] = curve of first compound, second compound 0.0316 µM
[4] = curve of first compound, second compound 0.1 µM
[5] = curve of first compound, second compound 0.316 µM
[6] = curve of first compound, second compound 1 µM
[7] = second compound 0.00316 µM, first compound 0.0316 µM
[8] = second compound 0.00316 µM, first compound 0.1 µM
[9] = second compound 0.00316 µM, first compound 0.316 µM
[10] = second compound 0.00316 µM, first compound 1 µM
[11] = second compound 0.00316 µM, first compound 3.16 µM
[12] = second compound 0.00316 µM, first compound 10 µM
[13] = second compound 0.01 µM, first compound 0.0316 µM
[14] = second compound 0.01 µM, first compound 0.1 µM
[15] = second compound 0.01 µM, first compound 0.316 µM
[16] = second compound 0.01 µM, first compound 1 µM
[17] = second compound 0.01 µM, first compound 3.16 µM
[18] = second compound 0.01 µM, first compound 10 µM
[19] = second compound 0.0316 µM, first compound 0.0316 µM
[20] = second compound 0.0316 µM, first compound 0.1 µM
[21] = second compound 0.0316 µM, first compound 0.316 µM
[22] = second compound 0.0316 µM, first compound 1 µM
[23] = second compound 0.0316 µM, first compound 3.16 µM
[24] = second compound 0.0316 µM, first compound 10 µM
[25] = second compound 0.1 µM, first compound 0.0316 µM
[26] = second compound 0.1 µM, first compound 0.1 µM
[27] = second compound 0.1 µM, first compound 0.316 µM
[28] = second compound 0.1 µM, first compound 1 µM
[29] = second compound 0.1 µM, first compound 3.16 µM
[30] = second compound 0.1 µM, first compound 10 µM
[31] = second compound 0.316 µM, first compound 0.0316 µM
[32] = second compound 0.316 µM, first compound 0.1 µM
[33] = second compound 0.316 µM, first compound 0.316 µM
[34] = second compound 0.316 µM, first compound 1 µM
[35] = second compound 0.316 µM, first compound 3.16 µM
[36] = second compound 0.316 µM, first compound 10 µM
[37] = second compound 1 µM, first compound 0.0316 µM
[38] = second compound 1 µM, first compound 0.1 µM
[39] = second compound 1 µM, first compound 0.316 µM
[40] = second compound 1 µM, first compound 1 µM
[41] = second compound 1 µM, first compound 3.16 µM
[42] = second compound 1 µM, first compound 10 µM

CC1(C)CCC(CN2CCN(c3ccc(C(=O)NS(=O)(=O)c4ccc(NCC5CCOCC5)c([N+](=O)[O-])c4)c(Oc4cnc5[nH]ccc5c4)c3)CC2)=C(c2ccc(Cl)cc2)C1 + COc1c(OCCCN2CCOCC2)ccc2c3n(c(=NC(=O)c4cnc(N)nc4)nc12)CCN3
IC50 [1]: > 10 µM
IC50 [2]: > 10 µM
IC50 [3]: > 10 µM
IC50 [4]: < 0.0316 µM
IC50 [5]: < 0.0316 µM
IC50 [6]: < 0.0316 µM
viability, T/C [7]: 117%
viability, T/C [8]: 80.5%
viability, T/C [9]: 122%
viability, T/C [10]: 74%
viability, T/C [11]: 82.4%
viability, T/C [12]: 108%
viability, T/C [13]: 100%
viability, T/C [14]: 69.8%
viability, T/C [15]: 91.5%
viability, T/C [16]: 78.6%
viability, T/C [17]: 80.1%
viability, T/C [18]: 88.1%
viability, T/C [19]: 73%
viability, T/C [20]: 81.8%
viability, T/C [21]: 67.3%
viability, T/C [22]: 69.4%
viability, T/C [23]: 58.5%
viability, T/C [24]: 75.1%
viability, T/C [25]: 43.7%
viability, T/C [26]: 42.3%
viability, T/C [27]: 37.1%
viability, T/C [28]: 38%
viability, T/C [29]: 35.2%
viability, T/C [30]: 41.4%
viability, T/C [31]: 15.6%
viability, T/C [32]: 22.3%
viability, T/C [33]: 17.9%
viability, T/C [34]: 18.1%
viability, T/C [35]: 14.8%
viability, T/C [36]: 16.6%
viability, T/C [37]: 6.44%
viability, T/C [38]: 6.49%
viability, T/C [39]: 6.92%
viability, T/C [40]: 7.19%
viability, T/C [41]: 4.62%
viability, T/C [42]: 9.27%

CC1(C)CCC(Nc2ncc(C(F)(F)F)c(-c3c[nH]c4c(P(C)(C)=O)c(C#N)ccc34)n2)CN1 (centres undefined) + CC(Nc1ccc2c(c1)OCCn1cc(N3C(=O)OCC3C(F)F)nc1-2)C(N)=O
IC50 [1]: > 10 µM
IC50 [2]: > 10 µM
IC50 [3]: 5.84 µM
IC50 [4]: 4.42 µM
IC50 [5]: < 0.0316 µM
IC50 [6]: < 0.0316 µM
viability, T/C [7]: 66.4%
viability, T/C [8]: 70%
viability, T/C [9]: 59.1%
viability, T/C [10]: 73.5%
viability, T/C [11]: 76.9%
viability, T/C [12]: 48.8%
viability, T/C [13]: 72.3%
viability, T/C [14]: 68.3%
viability, T/C [15]: 67.5%
viability, T/C [16]: 72.3%
viability, T/C [17]: 82.4%
viability, T/C [18]: 47.6%
viability, T/C [19]: 65.4%
viability, T/C [20]: 68.3%
viability, T/C [21]: 60.2%
viability, T/C [22]: 68.7%
viability, T/C [23]: 67%
viability, T/C [24]: 36.2%
viability, T/C [25]: 62%
viability, T/C [26]: 65.2%
viability, T/C [27]: 46.3%
viability, T/C [28]: 47.3%
viability, T/C [29]: 61.4%
viability, T/C [30]: 34.2%
viability, T/C [31]: 53.1%
viability, T/C [32]: 42.6%
viability, T/C [33]: 37.8%
viability, T/C [34]: 36.2%
viability, T/C [35]: 40.4%
viability, T/C [36]: 17.1%
viability, T/C [37]: 40.8%
viability, T/C [38]: 30.8%
viability, T/C [39]: 29.7%
viability, T/C [40]: 29.5%
viability, T/C [41]: 26.4%
viability, T/C [42]: 6.28%

CCN1CCN(Cc2ccc(Nc3ncc(F)c(-c4cc(F)c5nc(C)n(C(C)C)c5c4)n3)nc2)CC1 + CC(Nc1ccc2c(c1)OCCn1cc(N3C(=O)OCC3C(F)F)nc1-2)C(N)=O
IC50 [1]: > 1 µM
IC50 [2]: > 1 µM
IC50 [3]: > 1 µM
IC50 [4]: > 1 µM
IC50 [5]: 0.0173 µM
IC50 [6]: < 0.00316 µM
viability, T/C (second compound 0.00316 µM, first compound 0.00316 µM): 107%
viability, T/C (second compound 0.00316 µM, first compound 0.01 µM): 101%
viability, T/C [7]: 91%
viability, T/C [8]: 95.5%
viability, T/C [9]: 91.6%
viability, T/C [10]: 91.2%
viability, T/C (second compound 0.01 µM, first compound 0.00316 µM): 93%
viability, T/C (second compound 0.01 µM, first compound 0.01 µM): 101%
viability, T/C [13]: 94.4%
viability, T/C [14]: 86.2%
viability, T/C [15]: 76.5%
viability, T/C [16]: 82.5%
viability, T/C (second compound 0.0316 µM, first compound 0.00316 µM): 88.2%
viability, T/C (second compound 0.0316 µM, first compound 0.01 µM): 98%
viability, T/C [19]: 81.8%
viability, T/C [20]: 90%
viability, T/C [21]: 72.6%
viability, T/C [22]: 91%
viability, T/C (second compound 0.1 µM, first compound 0.00316 µM): 83.3%
viability, T/C (second compound 0.1 µM, first compound 0.01 µM): 90.6%
viability, T/C [25]: 71.5%
viability, T/C [26]: 58.9%
viability, T/C [27]: 56.5%
viability, T/C [28]: 73.8%
viability, T/C (second compound 0.316 µM, first compound 0.00316 µM): 58.2%
viability, T/C (second compound 0.316 µM, first compound 0.01 µM): 49.9%
viability, T/C [31]: 51.2%
viability, T/C [32]: 48.8%
viability, T/C [33]: 47%
viability, T/C [34]: 49.1%
viability, T/C (second compound 1 µM, first compound 0.00316 µM): 49.7%
viability, T/C (second compound 1 µM, first compound 0.01 µM): 36.8%
viability, T/C [37]: 35.7%
viability, T/C [38]: 32.5%
viability, T/C [39]: 37.2%
viability, T/C [40]: 44.8%

C#Cc1c(F)ccc2cc(O)cc(-c3ncc4c(N5CC6CCC(C5)N6)nc(OCC56CCCN5CC(F)C6)nc4c3F)c12 (centres undefined) + Cc1nc(NC(=O)N2CCCC2C(N)=O)sc1-c1ccnc(C(C)(C)C(F)(F)F)c1
IC50 [3]: > 10 µM
IC50 [4]: > 10 µM
IC50 [5]: > 10 µM
IC50 [6]: > 10 µM
IC50 (curve of first compound, second compound 3.16 µM): > 10 µM
IC50 (curve of first compound, second compound 10 µM): < 0.0316 µM
viability, T/C [19]: 94.8%
viability, T/C [20]: 91.4%
viability, T/C [21]: 99%
viability, T/C [22]: 87.8%
viability, T/C [23]: 99.6%
viability, T/C [24]: 74.8%
viability, T/C [25]: 98.8%
viability, T/C [26]: 72.2%
viability, T/C [27]: 73.4%
viability, T/C [28]: 80.1%
viability, T/C [29]: 103%
viability, T/C [30]: 89.4%
viability, T/C [31]: 90.5%
viability, T/C [32]: 71.2%
viability, T/C [33]: 80.3%
viability, T/C [34]: 97.8%
viability, T/C [35]: 86%
viability, T/C [36]: 84.5%
viability, T/C [37]: 74.2%
viability, T/C [38]: 84.7%
viability, T/C [39]: 69.5%
viability, T/C [40]: 82.7%
viability, T/C [41]: 82.8%
viability, T/C [42]: 77.8%
viability, T/C (second compound 3.16 µM, first compound 0.0316 µM): 63.4%
viability, T/C (second compound 3.16 µM, first compound 0.1 µM): 65.7%
viability, T/C (second compound 3.16 µM, first compound 0.316 µM): 61.1%
viability, T/C (second compound 3.16 µM, first compound 1 µM): 54%
viability, T/C (second compound 3.16 µM, first compound 3.16 µM): 54.2%
viability, T/C (second compound 3.16 µM, first compound 10 µM): 60.8%
viability, T/C (second compound 10 µM, first compound 0.0316 µM): 38.4%
viability, T/C (second compound 10 µM, first compound 0.1 µM): 40.4%
viability, T/C (second compound 10 µM, first compound 0.316 µM): 40.8%
viability, T/C (second compound 10 µM, first compound 1 µM): 31.7%
viability, T/C (second compound 10 µM, first compound 3.16 µM): 33%
viability, T/C (second compound 10 µM, first compound 10 µM): 40.1%

Cn1cnc2c(F)c(Nc3ccc(Br)cc3Cl)c(C(=O)NOCCO)cc21
viability, T/C (compound 0.00949 µM): 98.5% [middle of 4 runs]
viability, T/C (compound 0.0949 µM): 95.3% [middle of 4 runs]
viability, T/C (compound 0.3 µM): 98.9% [middle of 4 runs]
viability, T/C (compound 0.949 µM): 88% [middle of 4 runs]
viability, T/C (compound 3 µM): 95.5% [middle of 4 runs]
IC50 (curve of compound): > 3 µM
